{"source": "patent US20030082168A1", "about": "“Compositions and methods for facilitating weight loss” (priority 2001, published 2003)", "origin": "cited, not measured here", "key": {"[1]": {"test_system": "intercapsular brown adipose tissue (IBAT)", "settings": "caffeine alone"}, "[2]": {"settings": "for Weight of control group above CLA group: after 6 weeks"}, "[3]": {"settings": "2% CLA in diet; P=0.01"}}, "note": "Where two headings read alike, the source gives them in different places."}
{"molecule": "Cn1c(=O)c2c(ncn2C)n(C)c1=O", "note": "[Caffeine]", "values": [{"measurement": "IBAT oxygen uptake", "setting": "[1]", "result": "does not increase"}]}
{"molecule": "Conjugated linoleic acid [CLA]", "values": [{"measurement": "Weight of control group above CLA group", "setting": "[2]; high-fat diet, P<0.0001", "result": 5.7, "unit": "g"}, {"measurement": "Energy intake, growth rate, adipose depot weight and carcass lipid", "setting": "[2]; independent of diet composition", "result": "significantly reduced"}, {"measurement": "Weight of control group above CLA group", "setting": "[2]; low-fat diet, P<0.005", "result": 3.2, "unit": "g"}, {"measurement": "Metabolic rate", "setting": "[2]; mouse, in vivo", "result": "significantly increased"}, {"measurement": "Nighttime respiratory quotient", "setting": "[2]; mouse, in vivo", "result": "decreased"}, {"measurement": "Subcutaneous fat, change vs sunflower oil", "setting": "[3]", "result": "−6.8", "unit": "%"}]}
